# Measured values from patent US11160808B2, “Compounds that enhance Atoh1 expression” (Massachusetts Eye & Ear Infirmary, priority 2008, dated 2021).
# pIC50: −log10 of the molar value. Like-named read-outs stand apart in the source and are kept apart here.
# How the values were obtained:
# [1] = LD50 (median lethal dose) determination; type: cell-based
# Excerpt: IC50 is a measure of the effectiveness of a compound in inhibiting biological or biochemical function. LD50 is the amount of a compound required to kill half the members of a tested population.
# [2] = system: Math1 enhancer and minimal promoter Luciferase reporter in HEK cells; assay: Math1 Luciferase reporter assay in HEK cells; type: cell-based, human
# Method in brief: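 HEK cells stably carrying luciferase under the Math1 enhancer and minimal promoter were treated with compounds for 48 hours at 37° C, then lysed for luminescence, normalized to DMSO. Hits were defined as a 2-fold increase, with 1 μM retinoic acid as positive control. Follow-up used 0.1, 1 and 5 μM for 48 hours in 10% FBS DMEM, read by luciferase and real-time PCR.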
# Inner ear stem cells = assay: Hair cell differentiation of inner ear stem cells (Math1-GFP and myosin 7a co-labeling); type: cell-based; conditions: cells co-labeled with Math1-GFP and myosin 7a; control 1.6%
# Excerpt: Inner ear stem cells were exposed to compound CP.-0000540, which was selected at random from the group of 110 positive compounds described in Example 2.
# Hair cell differentiation was increased to 5.1% of total cells compared to 1.6% for control.
# Math1 mRNA = Math1 mRNA expression by RT-PCR in HEK cells; type: cell-based, human; conditions: among the four randomly selected compounds
# Procedure: Ten compounds, randomly selected from the group of 110 compounds identified in Example 2, were further evaluated, as follows. HEK cells were plated on 96 well plates at a density of 100000 cells per well. One day after plating, 0.1, 1, and 5 μM of each positive compound was added per well in a 10% fetal bovine serum (FBS) DMEM solution. Cells were then lysed 48 hours after addition of the compound and Math1 expression was analyzed using a luciferase reporter assay, as described above, and real-time PCR.
# RNA was also isolated and Math1 transcripts were amplified using high-throughput RT-PCR.
# [3] = Homo sapiens, HEK293; read-out: IC50
# [4] = Homo sapiens, HEK293; read-out: Maximum (Fold DMSO)
Structure (SMILES),LD50 [1],"pIC50 [2, 3]","maximal fold induction [2, 4]",Hair cell differentiation (Inner ear stem cells),increase in Math1 mRNA expression (ranking in words) (Math1 mRNA),"pIC50 ([2]; Homo sapiens, HEK293)","maximal fold induction ([2]; Homo sapiens, HEK293, read-out: Maximum (Fold DMSO))"
"Clc1ccc2nc(-c3ccccc3)n(OCc3ccccc3Cl)c2c1 [CP-0000540, 6-chloro-1-(2-chlorobenzyloxy)-2-phenyl-1H-benzo[d]imidazole]",>30 µM,5.89,2,5.1 % of total cells,highest increase,–,–
"COc1ccc(-c2nc3ccccc3n2CCc2ccccc2)cc1 [CP-0193184, 2-(4-methoxyphenyl)-1-phenethyl-1H-benzo[d]imidazole]",>30 µM,< 5.00,–,–,highest increase,–,–
"Cc1ccc(CSc2nc3ncccc3o2)cc1 [CP-0130586, 2-(4-methylbenzylthio) oxazolo[4,5-b]pyridine]",>10 µM,6.30,2.2,–,–,–,–
"c1ccc(-c2cc3ccccc3[nH]2)nc1 [CP-0072096, 2-(pyridin-2-yl)-1H-indole]",>10 µM,5.22,2.2,–,–,–,–
"Cn1cc(Cl)c(C(=O)NCC(=O)c2ccccc2)n1 [CP-0070886, 4-chloro-1-methyl-N-(2-oxo-2-phenylethyl)-1H-pyrazole-3-carboxamide]",>10 µM,6.00,2.1,–,–,–,–
"CC(=O)Nc1cc(-c2sc3ccc(Cl)cc3c2C)n[nH]1 [CP-0102404, N-(3-(5-chloro-3-methylbenzo[b]thiophen-2-yl)-1H-pyrazol-5-yl)acetamide]",>10 µM,< 5.00,1.6,–,–,–,–
"Cn1c(CCc2ccc(N)cc2)nc2ccccc21 [CP-0066829, 4-(2-(1-methyl-1H-benzo[d]imidazol-2-yl)ethyl)aniline]",>10 µM,6.00,1.8,–,–,–,–
"Fc1ccccc1-c1noc(NCCCN2CCCCC2)n1 [CP-0130665, 3-(2-fluorophenyl)-N-(3-(piperidin-1-yl)propyl)-1,2,4-oxadiazol-5-amine]",>10 µM,6.52,2,–,–,–,–
"Fc1ccc(-c2cnc(N3CCOCC3)nc2)cc1 [CP-0059642, 4-(5-(4-fluorophenyl)pyrimidin-2-yl)morpholine]",>10 µM,6.00,2.2,–,–,–,–
"Cc1cccc(NC(=O)c2ccc3c(c2)OCCO3)n1 [CP-0029278, N-(6-methylpyridin-2-yl)-2,3-dihydrobenzo [b][1,4]dioxine-6-carboxamide]",>10 µM,6.30,1.9,–,–,–,–
"COc1cccc(Nc2ncnc3[nH]cnc23)c1 [CP-0072720, N-(3-methoxyphenyl)-9H-purin-6-amine]",>10 µM,5.52,1.8,–,–,–,–
"O=C(Nc1nc2ccc(Br)cc2s1)c1cccs1 [CP-0064917, N-(6-bromobenzo[d]thiazol-2-yl)thiophene-2-carboxamide]",>10 µM,< 5.00,2,–,–,–,–
"c1ccc(SCc2nc3ccccc3[nH]2)cc1 [CP-0080773, 2-(phenylthiomethyl)-1H-benzo[d]imidazole]",>10 µM,< 5.00,2.2,–,–,–,–
"COc1ccc(C2=NN3C(C2)c2cccc(OC)c2OC32CCCCC2)cc1 (centres unmarked) [CP-0039073, 7-methoxy-2-(4-methoxyphenyl)-1,10b-dihydrospiro[benzo[e]pyra-zolo[1,5-c][1,3]oxazine-5,1′-cyclohexane]]",>10 µM,5.82,2.4,–,–,–,–
"CN(C)c1ccc(C2NN=C(c3ccc(Cl)cc3)N2)cc1 (centres unmarked) [CP-0007994, 4-(3-(4-chlorophenyl)-4,5-dihydro-1H-1,2,4-triazol-5-yl)-N,N-dimethylaniline]",>10 µM,6.00,1.9,–,–,–,–
"Cc1cccc(-c2ccc3ccccc3n2)c1 [CP-0072092, 2-m-tolylquinoline]",>10 µM,6.00,1.7,–,–,–,–
"Cc1ccc(COn2c(-c3ccccc3)nc3ccc([N+](=O)[O-])cc32)cc1 [CP-0000571, 1-(4-methylbenzyloxy)-6-nitro-2-phenyl-1H-benzo[d]imidazole]",>30 µM,6.52,2,–,–,–,–
"O=C(COc1ccccc1)N1CCc2ccccc21 [CP-0110644, 1-(indolin-1-yl)-2-phenoxyethanone]",>10 µM,6.00,1.8,–,–,–,–
"Brc1ccc(C2C=C(c3cccnc3)Nc3nc4ccccc4n32)cc1 (centres unmarked) [CP-0131763, 2-(3-pyridyl)-4-(4-bromophenyl)-1,4-dihydrobenzo[4,5]imi-dazo[1,2-a]pyrimidine]",>10 µM,–,–,–,–,5.70,2.4
"COc1cc(C)c2c(=O)cc(-c3ccccc3)oc2c1 [CP-0096433, 7-methoxy-5-methyl-2-phenyl-4H-chromen-4-one]",>10 µM,5.52,2,–,–,–,–
"N#Cc1c(NC(=O)c2ccccc2F)sc2c1CCCC2 [CP-0060852, N-(3-cyano-4,5,6,7-tetrahydrobenzo[b]thio-phen-2-yl)-2-fluorobenzamide]",>10 µM,5.60,1.8,–,–,–,–
"O=C(Nc1ccc(Cl)cn1)c1ccc(Br)cc1 [CP-0060729, 4-bromo-N-(5-chloropyridin-2-yl)benzamide]",>10 µM,6.70,1.6,–,–,–,–
"COc1ccc(-c2nc3ccc(Cl)cc3n2OCc2ccc(C)cc2)cc1 [CP-0000553, 6-chloro-2-(4-methoxyphenyl)-1-(4-methylbenzyloxy)-1H-benzo[d]imidazole]",>30 µM,8.00,2,–,–,–,–
"Clc1ccc2oc(-c3ccccc3)nc2c1 [CP-0079983, 5-chloro-2-phenylbenzo[d]oxazole]",>10 µM,5.52,1.8,–,–,–,–
"Oc1ccc(-c2nc3ccccc3[nH]2)cc1 [CP-0047659, 4-(1H-benzo[d]imidazol-2-yl)phenol]",>10 µM,5.89,2.3,–,–,–,–
"Cc1ccc(-c2cnc3ccccc3n2)cc1C [CP-0045061, 2-(3,4-dimethylphenyl) quinoxaline]",>10 µM,5.52,1.9,–,–,–,–
"c1ccc2sc(-c3cnc(N4CCOCC4)nc3)cc2c1 [CP-0059563, 4-(5-(benzo[b]thiophen-2-yl)pyrimidin-2-yl)morpholine]",>10 µM,< 5.00,1.9,–,–,–,–
"Cc1cccc(Nc2nc(N)c(C(=O)C(C)C)s2)c1 [CP-0134381, 1-(4-amino-2-(m-tolylamino)thiazol-5-yl)-2-methylpropan-1-one]",>10 µM,5.70,2.2,–,–,–,–
